Test: Safety and adverse events
Type: in vivo, human
Text: On study blood tests included complete blood count (CBC) with differential and platelets; chemistry panel including sodium, potassium, creatinine, BUN, glucose, total protein, albumin, bilirubin (total), alkaline phosphatase, AST (SGOT), and ALT (SGPT), and lipid profile (HDL, LDL and triglycerides, cholesterol. […] Adverse event analysis was based on the percentage of patients who discontinued the study and the percentage of patients who discontinued the study possibly due to adverse events.

## glatiramer acetate [Placebo + GA]
Breast
  Fibrocystic disease on clinical exam - %: (5) %
  Fibrocystic disease on clinical exam - no.: 4
  Mammogram with malignancy - no.: 0
Completed
  Breast adverse events, # of patients: [5]
  Breast adverse events, number of events: 5
  Cardiovascular adverse events, # of patients: [8]
  Cardiovascular adverse events, number of events: 8
  Extremity adverse events, # of patients: [21]
  Extremity adverse events, number of events: 43
  GA related? adverse events, # of patients: [11]
  GA related? adverse events, number of events: 22
  GI adverse events, # of patients: [15]
  GI adverse events, number of events: 19
  GU adverse events, # of patients: [10]
  GU adverse events, number of events: 17
  GYN adverse events, # of patients: [15]
  GYN adverse events, number of events: 18
  General adverse events, # of patients: [26]
  General adverse events, number of events: 48
  Head/Neck adverse events, # of patients: [26]
  Head/Neck adverse events, number of events: 42
  Lymph adverse events, # of patients: [1]
  Lymph adverse events, number of events: 1
  MRI related adverse events, # of patients: [2]
  MRI related adverse events, number of events: 3
  Menses adverse events, # of patients: [10]
  Menses adverse events, number of events: 14
  Mental adverse events, # of patients: [10]
  Mental adverse events, number of events: 14
  Neurology adverse events, # of patients: [9]
  Neurology adverse events, number of events: 13
  Respiratory adverse events, # of patients: [26]
  Respiratory adverse events, number of events: 47
  Skeleton adverse events, # of patients: [1]
  Skeleton adverse events, number of events: 2
  Skin adverse events, # of patients: [10]
  Skin adverse events, number of events: 15
  Total adverse events, # of patients: [53]
  Total adverse events, number of events: 331
Discontinued
  Cancer adverse events, # of patients: [1]
  Cancer adverse events, number of events: 1
  Extremity adverse events, # of patients: [2]
  Extremity adverse events, number of events: 4
  GA related? adverse events, # of patients: [4]
  GA related? adverse events, number of events: 10
  GI adverse events, # of patients: [3]
  GI adverse events, number of events: 3
  GU adverse events, # of patients: [3]
  GU adverse events, number of events: 3
  GYN adverse events, # of patients: [3]
  GYN adverse events, number of events: 3
  General adverse events, # of patients: [6]
  General adverse events, number of events: 9
  Head/Neck adverse events, # of patients: [4]
  Head/Neck adverse events, number of events: 9
  Lymph adverse events, # of patients: [1]
  Lymph adverse events, number of events: 1
  Menses adverse events, # of patients: [2]
  Menses adverse events, number of events: 3
  Mental adverse events, # of patients: [5]
  Mental adverse events, number of events: 5
  Neurology adverse events, # of patients: [1]
  Neurology adverse events, number of events: 1
  Respiratory adverse events, # of patients: [3]
  Respiratory adverse events, number of events: 7
  Skin adverse events, # of patients: [2]
  Skin adverse events, number of events: 2
  Total adverse events, # of patients: [13]
  Total adverse events, number of events: 61
Uterus
  Abnormal proliferation on biopsy - no.: 0
  Endometrial biopsies performed - %: (8) %
  Endometrial biopsies performed - no.: 6
  Endometrial thickness >8 mm (ultrasound) - %: (36) %
  Endometrial thickness >8 mm (ultrasound) - no.: 27
  Fibroids (ultrasound) - %: (11) %
  Fibroids (ultrasound) - no.: 8
In vivo
  Adverse events leading to discontinuation - %: (6%)
  Adverse events leading to discontinuation - no.: 5
  Any adverse event - % of pts: 87%
  Any adverse event - no of pts: 67
  Any adverse event - no. of events: 392
  Arm/leg numbness, tingling - % of pts: 9%
  Arm/leg numbness, tingling - no of pts: 7
  Arm/leg numbness, tingling - no. of events: 10
  Back pain - % of pts: 6%
  Back pain - no of pts: 5
  Back pain - no. of events: 5
  Copaxone injection area abnormalities - % of pts: 18%
  Copaxone injection area abnormalities - no of pts: 14
  Copaxone injection area abnormalities - no. of events: 30
  Depression/anxiety - % of pts: 12%
  Depression/anxiety - no of pts: 9
  Depression/anxiety - no. of events: 10
  Dizziness - % of pts: 9%
  Dizziness - no of pts: 7
  Dizziness - no. of events: 10
  Fatigue - % of pts: 10%
  Fatigue - no of pts: 8
  Fatigue - no. of events: 10
  Gastroenteritis - % of pts: 4%
  Gastroenteritis - no of pts: 3
  Gastroenteritis - no. of events: 4
  Headache - % of pts: 14%
  Headache - no of pts: 11
  Headache - no. of events: 12
  Heart palpitation - % of pts: 5%
  Heart palpitation - no of pts: 4
  Heart palpitation - no. of events: 4
  Insomnia - % of pts: 5%
  Insomnia - no of pts: 4
  Insomnia - no. of events: 4
  Irregular menses/spotting - % of pts: 4%
  Irregular menses/spotting - no of pts: 3
  Irregular menses/spotting - no. of events: 4
  Menstrual cramp - % of pts: 5%
  Menstrual cramp - no of pts: 4
  Menstrual cramp - no. of events: 5
  Menstrual flow amount increased - % of pts: 8%
  Menstrual flow amount increased - no of pts: 6
  Menstrual flow amount increased - no. of events: 8
  Nausea/vomiting - % of pts: 6%
  Nausea/vomiting - no of pts: 5
  Nausea/vomiting - no. of events: 5
  Severe adverse events - % of pts: 13%
  Severe adverse events - no of pts: 10
  Severe adverse events - no. of events: 12
  Shingles - % of pts: 5%
  Shingles - no of pts: 4
  Shingles - no. of events: 4
  Sinusitis - % of pts: 13%
  Sinusitis - no of pts: 10
  Sinusitis - no. of events: 14
  Upper respiratory infection - % of pts: 34%
  Upper respiratory infection - no of pts: 26
  Upper respiratory infection - no. of events: 38
  Urinary tract infection - % of pts: 13%
  Urinary tract infection - no of pts: 10
  Urinary tract infection - no. of events: 16
  Vaginal infection - % of pts: 10%
  Vaginal infection - no of pts: 8
  Vaginal infection - no. of events: 9
  Vision problem (blurry, double) - % of pts: 9%
  Vision problem (blurry, double) - no of pts: 7
  Vision problem (blurry, double) - no. of events: 7
Severe adverse event
  Accidently took other's drug - % of pts: [1, 1%]
  Accidently took other's drug - no of pts: [1, 1%]
  Accidently took other's drug - no. of events: 1
  Acute appendicitis - % of pts: [1, 1%]
  Acute appendicitis - no of pts: [1, 1%]
  Acute appendicitis - no. of events: 1
  B-cell lymphoma - % of pts: [1, 1%]
  B-cell lymphoma - no of pts: [1, 1%]
  B-cell lymphoma - no. of events: 1
  Car accident related body numbness - % of pts: [1, 1%]
  Car accident related body numbness - no of pts: [1, 1%]
  Car accident related body numbness - no. of events: 1
  Heart failure - no. of events: 0
  MS relapse - % of pts: 6%
  MS relapse - no of pts: 5
  MS relapse - no. of events: 6
  Migraine headache related eye pain - no. of events: 0
  Pace maker implantation - no. of events: 0
  Pregnancy termination - no. of events: 0
  Pyelonephritis - no. of events: 0
  Right knee replacement - % of pts: [1, 1%]
  Right knee replacement - no of pts: [1, 1%]
  Right knee replacement - no. of events: 1
  Systolic heart failure - no. of events: 0
  UTI - % of pts: [1, 1%]
  UTI - no of pts: [1, 1%]
  UTI - no. of events: 1
